From ChEMBL document CHEMBL2073894, “Localization of organic anion transporting polypeptide 4 (Oatp4) in rat liver and comparison of its substrate specificity with Oatp1, Oatp2 and Oatp3” (Pflugers Arch, 2001)

Assays:
[1] = target: T1, Solute carrier organic anion transporter family member 1A5 (Rattus norvegicus, UniProt O88397); assay: (§1) TP_TRANSPORTER: uptake in Xenopus laevis oocytes; format: functional, cell-based, Oocyte; settings: oocyte
T1 sequence (O88397 whole entry): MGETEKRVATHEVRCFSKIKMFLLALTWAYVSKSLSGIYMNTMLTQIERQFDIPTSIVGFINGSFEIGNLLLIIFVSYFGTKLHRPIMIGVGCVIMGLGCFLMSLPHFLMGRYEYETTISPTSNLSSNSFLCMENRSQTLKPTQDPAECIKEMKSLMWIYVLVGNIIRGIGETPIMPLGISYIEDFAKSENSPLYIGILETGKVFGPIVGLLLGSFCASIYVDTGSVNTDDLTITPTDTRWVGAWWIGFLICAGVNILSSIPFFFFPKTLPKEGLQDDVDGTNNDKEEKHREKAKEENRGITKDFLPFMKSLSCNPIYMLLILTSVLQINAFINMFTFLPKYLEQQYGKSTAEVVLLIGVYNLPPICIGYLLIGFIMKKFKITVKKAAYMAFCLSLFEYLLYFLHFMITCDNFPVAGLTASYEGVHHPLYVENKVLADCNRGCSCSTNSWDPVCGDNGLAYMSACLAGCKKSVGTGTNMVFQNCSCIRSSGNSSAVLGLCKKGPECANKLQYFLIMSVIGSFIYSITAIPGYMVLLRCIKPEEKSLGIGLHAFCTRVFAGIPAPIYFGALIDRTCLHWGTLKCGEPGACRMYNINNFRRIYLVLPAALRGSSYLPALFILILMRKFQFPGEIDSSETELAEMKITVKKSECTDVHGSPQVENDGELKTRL

[2] = target: T2, Solute carrier organic anion transporter family member 1B2 (Rattus norvegicus, UniProt Q9QZX8); assay: as §1; format: functional, cell-based; settings: oocyte
T2 sequence (Q9QZX8 whole entry): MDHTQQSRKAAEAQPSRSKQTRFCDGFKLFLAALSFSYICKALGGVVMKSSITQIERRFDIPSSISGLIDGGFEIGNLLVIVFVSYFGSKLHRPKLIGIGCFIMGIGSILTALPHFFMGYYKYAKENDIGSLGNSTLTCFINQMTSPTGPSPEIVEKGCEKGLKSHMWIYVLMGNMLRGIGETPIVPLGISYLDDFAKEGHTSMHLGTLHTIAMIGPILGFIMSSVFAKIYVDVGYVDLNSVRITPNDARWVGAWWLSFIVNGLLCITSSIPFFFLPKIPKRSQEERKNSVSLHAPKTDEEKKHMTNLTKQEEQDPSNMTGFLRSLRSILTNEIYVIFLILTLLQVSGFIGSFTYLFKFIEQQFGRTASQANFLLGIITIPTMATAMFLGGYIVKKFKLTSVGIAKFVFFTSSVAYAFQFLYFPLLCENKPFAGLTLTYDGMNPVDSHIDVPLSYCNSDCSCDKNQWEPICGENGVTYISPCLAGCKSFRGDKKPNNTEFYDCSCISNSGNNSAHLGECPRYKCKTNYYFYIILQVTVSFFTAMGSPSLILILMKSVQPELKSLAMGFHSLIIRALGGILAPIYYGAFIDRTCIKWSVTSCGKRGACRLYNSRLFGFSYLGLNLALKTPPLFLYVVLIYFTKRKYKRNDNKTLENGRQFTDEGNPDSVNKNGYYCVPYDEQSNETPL

[3] = target: T3, Solute carrier organic anion transporter family member 1A4 (Rattus norvegicus, UniProt O35913); assay: as §1; format: functional, cell-based; settings: oocyte
T3 sequence (O35913 whole entry): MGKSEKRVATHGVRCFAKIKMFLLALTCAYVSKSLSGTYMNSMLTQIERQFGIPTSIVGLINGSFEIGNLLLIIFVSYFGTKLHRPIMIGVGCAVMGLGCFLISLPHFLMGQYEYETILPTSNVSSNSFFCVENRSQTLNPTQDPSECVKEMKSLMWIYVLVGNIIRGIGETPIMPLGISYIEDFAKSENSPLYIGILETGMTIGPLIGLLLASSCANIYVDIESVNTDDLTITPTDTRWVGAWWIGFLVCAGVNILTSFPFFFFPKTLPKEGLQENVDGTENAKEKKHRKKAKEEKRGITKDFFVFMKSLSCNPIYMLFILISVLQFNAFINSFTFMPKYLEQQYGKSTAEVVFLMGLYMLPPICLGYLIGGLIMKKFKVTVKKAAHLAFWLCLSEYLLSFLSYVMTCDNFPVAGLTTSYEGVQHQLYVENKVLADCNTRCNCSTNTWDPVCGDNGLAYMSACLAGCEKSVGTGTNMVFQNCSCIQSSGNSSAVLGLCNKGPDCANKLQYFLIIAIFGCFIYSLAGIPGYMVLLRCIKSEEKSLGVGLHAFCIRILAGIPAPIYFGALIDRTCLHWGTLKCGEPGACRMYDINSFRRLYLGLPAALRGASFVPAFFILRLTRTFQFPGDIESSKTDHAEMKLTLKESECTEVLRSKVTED

[4] = target: T4, Solute carrier organic anion transporter family member 1A1 (Rattus norvegicus, UniProt P46720); assay: as §1; format: functional, cell-based; settings: oocyte
T4 sequence (P46720 whole entry): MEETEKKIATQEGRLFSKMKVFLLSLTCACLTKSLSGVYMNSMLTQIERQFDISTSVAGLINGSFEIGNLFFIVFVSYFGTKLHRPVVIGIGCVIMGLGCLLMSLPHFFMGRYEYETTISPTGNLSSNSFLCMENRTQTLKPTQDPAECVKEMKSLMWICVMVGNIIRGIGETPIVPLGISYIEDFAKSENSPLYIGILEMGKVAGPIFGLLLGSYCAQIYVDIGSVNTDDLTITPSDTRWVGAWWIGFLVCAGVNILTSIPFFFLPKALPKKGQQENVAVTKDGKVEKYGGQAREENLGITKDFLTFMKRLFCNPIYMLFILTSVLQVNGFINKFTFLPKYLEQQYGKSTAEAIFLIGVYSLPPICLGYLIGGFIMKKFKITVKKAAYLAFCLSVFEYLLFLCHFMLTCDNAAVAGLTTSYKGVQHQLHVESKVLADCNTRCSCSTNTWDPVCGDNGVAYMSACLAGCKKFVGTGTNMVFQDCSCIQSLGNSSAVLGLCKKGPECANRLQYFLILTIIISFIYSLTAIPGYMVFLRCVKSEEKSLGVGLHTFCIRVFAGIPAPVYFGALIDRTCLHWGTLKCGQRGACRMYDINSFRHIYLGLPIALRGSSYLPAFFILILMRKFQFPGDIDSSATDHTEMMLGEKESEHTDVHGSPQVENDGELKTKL

[5] = target: T5, Solute carrier organic anion transporter family member 1A5 (Oatp1a5) (Rattus norvegicus, UniProt O88397); assay: as §1; format: functional, cell-based, Oocyte; settings: Xenopus laevis oocytes
T5 sequence (O88397 whole entry): T1 sequence (O88397 whole entry)

[6] = substrate: CC(C)C[C@@H]1NC(=O)[C@@H](C(C)C)NC(=O)[C@@H]2CCCN2C(=O)[C@@H](CC(=O)O)NC(=O)[C@@H](Cc2c[nH]c3ccccc23)NC1=O; assay: as §1; format: functional, cell-based, Oocyte
[7] = substrate: CC1(C)SSC(C)(C)[C@@H](NC(=O)[C@@H](N)Cc2ccc(O)cc2)C(=O)NCC(=O)N[C@@H](Cc2ccccc2)C(=O)N[C@H]1C(=O)O; assay: as §1; format: functional, cell-based, Oocyte
[8] = substrate: CCCCC/C=C\C\C=C/C=C/C=C/[C@@H](SC[C@@H](NC(=O)CC[C@H](N)C(=O)O)C(=O)NCC(=O)O)[C@@H](O)CCCC(=O)O; assay: as §1; format: functional, cell-based, Oocyte
[9] = substrate: CCCCC[C@H](O)/C=C/[C@H]1[C@H](O)CC(=O)[C@@H]1C/C=C\CCCC(=O)O; assay: as §1; format: functional, cell-based, Oocyte
[10] = substrate: C[C@]12CC[C@@H]3c4ccc(O)cc4CC[C@H]3[C@@H]1CC[C@@H]2O[C@@H]1O[C@H](C(=O)O)[C@@H](O)[C@H](O)[C@H]1O; assay: as §1; format: functional, cell-based, Oocyte
[11] = substrate: C[C@]12CC[C@@H]3c4ccc(OS(=O)(=O)O)cc4CC[C@H]3[C@@H]1CCC2=O; assay: as §1; format: functional, cell-based, Oocyte
[12] = substrate: [H][C@@]12CC=C3C[C@@H](OS(=O)(=O)O)CC[C@]3(C)[C@@]1([H])CC[C@]1(C)C(=O)CC[C@@]21[H]; assay: as §1; format: functional, cell-based, Oocyte
[13] = substrate: O=C1OC(c2ccc(O)c(S(=O)(=O)O)c2)(c2ccc(O)c(S(=O)(=O)O)c2)c2c(Br)c(Br)c(Br)c(Br)c21; assay: as §1; format: functional, cell-based, Oocyte

C=C[C@H]1C[N+]2(C)CC[C@H]1C[C@H]2[C@H](O)c1ccnc2ccc(OC)cc12 was tested, and the Activity [1] was “is not a substrate [-]” and the Activity [2] was “is not a substrate [-]”.

Nc1ccc(C(=O)NCC(=O)O)cc1 [AMINOHIPPURIC ACID] was tested, and the Activity [1] was “is not a substrate [-]”, the Activity [3] was “is not a substrate [-]” and the Activity [2] was “is not a substrate [-]”.

For CC(C)[C@H](NC(=O)[C@H](CCC(=O)O)NC(=O)[C@H](Cc1ccccc1)NC(=O)[C@@H](C)NC(=O)[C@@H](N)Cc1ccc(O)cc1)C(=O)N[C@H](C(=O)NCC(N)=O)C(C)C [DELTORPHIN II], the Activity [1] was “is not a substrate [-]” and the Activity [2] was “is not a substrate [-]”.

CCCCC[C@H](O)/C=C/[C@H]1[C@H](O)CC(=O)[C@@H]1C/C=C\CCCC(=O)O [DINOPROSTONE] was tested, and the Activity [4] was “is not a substrate [-]”.

With CN(Cc1cnc2nc(N)nc(N)c2n1)c1ccc(C(=O)N[C@@H](CCC(=O)O)C(=O)O)cc1 [METHOTREXATE] the Activity [1] was “is not a substrate [-]”, the Activity [4] was “is not a substrate [-]” and the Activity [2] was “is not a substrate [-]”.

For C[C@@H]1O[C@@H](O[C@H]2C[C@@H](O)[C@]3(CO)[C@H]4[C@H](O)C[C@]5(C)[C@@H](C6=CC(=O)OC6)CC[C@]5(O)[C@@H]4CC[C@]3(O)C2)[C@H](O)[C@H](O)[C@H]1O [OUABAIN], the Km [5] was 1570 µM and the Activity [2] was “is not a substrate [-]”.

C=CC[N+]1([C@H]2C[C@H]3[C@@H]4CC[C@H]5C[C@H](O)[C@@H](N6CCOCC6)C[C@]5(C)[C@H]4CC[C@]3(C)[C@H]2OC(C)=O)CCCC1 [ROCURONIUM] was tested, and the Activity [1] was “substrate [+]” and the Activity [2] was “is not a substrate [-]”.

For CC[N+](CC)(CC)CC [TETRYLAMMONIUM], the Activity [1] was “is not a substrate [-]”, the Activity [4] was “is not a substrate [-]” and the Activity [3] was “is not a substrate [-]”. For the same molecule, the Activity [2] was “is not a substrate [-]”.

B1: Solute carrier organic anion transporter family member 1B2 (Rattus norvegicus) (protein)
chain: T2 sequence (Q9QZX8 whole entry)
In the case of B1, the Km [6] is reported as 13.8 µM, the Km [7] is reported as 22 µM and the Km [8] is reported as 6.5 µM. It also gave a Km [9] of 13 µM, a Km [10] of 32 µM and a Km [11] of 37 µM. The Km [12] was 5.3 µM.

B2: Solute carrier organic anion transporter family member 1A5 (Rattus norvegicus) (protein)
chain: T1 sequence (O88397 whole entry)
B2 gave a Km [6] of 417 µM, a Km [7] of 137 µM and a Km [9] of 35 µM. The Km [10] was 39 µM, the Km [11] was 268 µM and the Km [13] was 8.3 µM. For the same molecule, the Km [12] was 162 µM.
